Like-named read-outs stand apart in the source and are kept apart here.
How the values were obtained:
HCT116 p53+/+ cells = test: Antiproliferative activity, sulforhodamine B (SRB) assay; format: cell-based, human; conditions: for S.I. (selectivity index): HCT116 p53−/− versus HCT116 p53+/+; for increase in the antiproliferative activity on bromine insertion at the C-2 indole: versus non-brominated parent isoindolinone
Experimental: (§1) Tumor cells were cultured in RPMI-1640 with UltraGlutamine (Lonza, VWR), supplemented with 10% fetal bovine serum (FBS; Gibco, Alfagene) and maintained in a humidified incubator at 37 °C with 5% CO2. Cell lines were seeded in 96-well plates at the cells/well density of 5.0 × 10^3.

HCT116 p53−/− cells = test: as above; format: cell-based, human
Experimental: as §1

[1] = target: T1, wt p53 core domain (DNA Binding Domain; p53DBD; residues 94–312) (Homo sapiens, UniProt P04637); test: Differential scanning fluorimetry (DSF) thermostability; conditions: 13d 2.5 mM, MQ 2 mM; for Tm of the wt p53DBD: 5% DMSO, mean ± SD, three assays
T1 construct: residues 94–312; host or cells: E. coli BL21 (DE3)-[pLys-S]
T1 sequence (P04637 94-312): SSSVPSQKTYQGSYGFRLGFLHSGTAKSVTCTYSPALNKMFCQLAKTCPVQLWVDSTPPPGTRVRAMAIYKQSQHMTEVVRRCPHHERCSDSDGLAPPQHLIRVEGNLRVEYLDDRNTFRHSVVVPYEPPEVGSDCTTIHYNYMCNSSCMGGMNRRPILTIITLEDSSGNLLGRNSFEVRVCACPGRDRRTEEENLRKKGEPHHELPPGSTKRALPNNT
Experimental: Expression of wt p53 core domain. The wt p53DBD was expressed in E. coli BL21 (DE3)-[pLys-S] in fusion with an N-terminal 21-residue tag containing the hexa-histidyl peptide (His6) and the thrombin recognition sequence, using the pET15b-based expression construct.
For protein expression 10 mL of an overnight (ON) culture was used to inoculate 1 L of LB medium supplemented with 1 mL of ampicillin 100 mg/mL and 1mL of zinc sulphate 100 mM. Culture medium was incubated at 37 °C, 140 rpm till an OD600nm of ~0.5. Protein expression was then induced by adding 0.5 mL of isopropyl β-D-1-thiogalactopyranoside (IPTG) 1M (Cfinal = 0.5 mM) and bacterial growth at 27 °C, 120 rpm ON. E. coli cells were pelleted by centrifugation for 10 min, 4000 rpm, at 4 °C. The cellular pellet was resuspended in 10 mL of Lysis buffer (Sodium phosphate 50 mM; NaCl 300 mM; glycerol 10%, pH 7.4) supplemented with 1mg/mL Lysozyme (Biochemica Applichem Panreac), 1 mM of phenylmethanesulfonyl fluoride (PMSF) (Merck), 5 µg of DNAse I (Panreac applichem) and 0.8% of Triton X-100 (Merck). After a first step of chemical lysis (30 min incubation, at 4 °C), cells were further disrupted by four cycles of sonication, at 4 °C, during 60 s at 50% duty free cycle on a Vibra Cell (Media Cibernetics). The lysate was subsequently cleared by centrifugation at 10,000 rpm, 40 min, at 4 °C and the supernatant containing the soluble proteins were collected.
Purification of human wt p53DBD and His6-tag removal. Immobilized Metal Affinity Chromatography (IMAC) was performed to purify the wt p53DBD using a nickel-nitrilotriacetic acid (Ni-NTA) agarose resin (QIAGEN). Briefly, 1 mL of Ni^2+ resin was pre-equilibrated using MilliQ water (3 × 1 mL) and Lysis buffer containing 10 mM imidazole (3 × 1 mL). The soluble fraction of cellular lysate was supplemented with 6.8 µL of β-mercaptoethanol and 33.2 µL of imidazole 3 M to obtain the final concentrations of […] and 10 mM, respectively. The lysate was added to the pre-equilibrated resin and protein binding was performed by incubation on an orbital shaker for one hour at 4 °C. The suspension was added to a 9 cm polypropylene conical column (Poly-Prep columns; BioRad) and protein purification was performed by gravity flow with an imidazole gradient consisting of three washing steps (2 × 5 mL of Lysis buffer, 20 mM imidazole; 2 × 5 mL of Lysis buffer, 50 mM imidazole; and 1 × 2.5 mL Lysis buffer, 75 mM imidazole) and an elution step with 5 × 500 µL of Lysis buffer, 250 mM imidazole. Protein eluted fractions were assessed by SDS-PAGE and Coomassie staining. Size exclusion chromatography was performed on the pooled protein eluted fractions, using an AKTA prime plus system (GE Healthcare) equipped with a UV detector (280 nm), a HiLoad 16/60, Superdex 200 prep grade column (GE Healthcare) and SEC buffer (25 mM potassium phosphate buffer, 150 mM NaCl, pH 7.5). The fractions corresponding to the wt p53DBD monomers were collected and treated with thrombin (8 units of thrombin/mg wt p53DBD). The thrombin cleavage was conducted for 18 h at rt at pH 7.4 in the assay buffer recommended by the supplier. Before and after digestion protein concentration was determined through Bradford method.
Thermostability of wt p53DBD core domain assessed by differential scanning fluorimetry (DSF). An amount of 5 μg of thrombin-cleaved wt p53DBD was incubated with testing compounds (2.5 mM) in 25 mM potassium phosphate buffer and 150 mM NaCl, pH 7.5 in a final volume of 50 µL containing 2 µL of 1 mM DTT or 1 mM TCEP to promote p53 core domain redox control, and Sypro Orange at 2.5x final concentration. The fluorescence was assessed on a C1000 Touch thermal cycler equipped with a CFX96 optical reaction module (BioRad) and the FRET channel (λexc 450–490 nm and λem 560–580 nm). Temperature was ramped from 20 to 90 °C with a rate of 0.2 °C/12 sec. The Tm values were calculated using Origin 8 Software. […]

[2] = Homo sapiens, HCT-116, 48 h treatment, mean ± SEM of 3–5 independent experiments, read-out: HCT116 p53+/+ GI50
[3] = Homo sapiens, HCT-116, 48 h, 48 h treatment, mean ± SEM of 3–5 independent experiments, read-out: HCT116 p53−/− GI50
[4] = Homo sapiens, HCT-116, 48 h treatment, mean ± SEM of 5 independent experiments, read-out: HCT116 p53+/+ GI50
[5] = Homo sapiens, HCT-116, 48 h, 48 h treatment, mean ± SEM of 5 independent experiments, read-out: HCT116 p53−/− GI50

Row | SMILES | S.I. (selectivity index) (HCT116 p53+/+ cells) | GI50 (HCT116 p53+/+ cells; [2]) [µM] | GI50 (HCT116 p53−/− cells; [3]) [µM] | other results
1 | CS(=O)(=O)n1c(Br)c(C[C@H]2CO[C@]3(c4ccccc4)c4ccccc4C(=O)N23)c2ccccc21 [Compound 13n, (3S, 9bR)-3-((2-bromo-1-(methylsulfonyl)-1H-indol-3-yl)methyl)-9b-phenyl-2,3-dihydrooxazolo[2,3-a]isoindol-5(9bH)-one] | 1.1 | 12.5 ± 0.5 | 13.5 ± 0.5 | 
2 | O=C1c2ccccc2[C@@]2(c3ccc(Cl)c([N+](=O)[O-])c3)OC[C@H](Cc3c(Br)[nH]c4ccccc34)N12 [Compound 13i, (3S, 9bR)-3-((2-bromo-1H-indol-3-yl)methyl)-9b-(4-chloro-3-nitrophenyl)-2,3-dihydrooxazolo[2,3-a]isoindol-5(9bH)-one] | 1.0 | 23.3 ± 0.9 | 22.2 ± 1.2 | 
3 | CCCn1c(Br)c(C[C@@H]2CO[C@@]3(c4ccccc4)c4ccccc4C(=O)N23)c2ccccc21 [13d′, (3R, 9bS)-3-((2-bromo-1-propyl-1H-indol-3-yl)methyl)-9b-phenyl-2,3-dihydrooxazolo[2,3-a]isoindol-5(9bH)-one] |  | 31.1 ± 4 | 25.4 ± 1.2 | 
4 | Cn1c(Br)c(C[C@H]2CO[C@]3(c4ccccc4)c4ccccc4C(=O)N23)c2ccccc21 [Compound 13c, (3S, 9bR)-3-((2-bromo-1-methyl-1H-indol-3-yl)methyl)-9b-phenyl-2,3-dihydrooxazolo[2,3-a]isoindol-5(9bH)-one] | 0.4 | 25.6 ± 1.4 | 10.8 ± 2 | 
5 | CCn1c(Br)c(C[C@H]2CO[C@]3(c4ccccc4)c4ccccc4C(=O)N23)c2ccccc21 [Compound 13j, (3S, 9bR)-3-((2-bromo-1-ethyl-1H-indol-3-yl)methyl)-9b-phenyl-2,3-dihydrooxazolo[2,3-a]isoindol-5(9bH)-one] | 1.2 | 13 ± 1.01 | 16 ± 2 | 
6 | O=C1c2ccccc2[C@@]2(c3ccc(F)cc3)OC[C@H](Cc3c(Br)[nH]c4ccccc34)N12 [Compound 13g, (3S, 9bR)-3-((2-bromo-1H-indol-3-yl)methyl)-9b-(4-fluorophenyl)-2,3-dihydrooxazolo[2,3-a]isoindol-5(9bH)-one] | 1.0 | 6.95 ± 0.6 | 6.7 ± 1.6 | increase in the antiproliferative activity on bromine insertion at the C-2 indole (HCT116 p53+/+ cells): 1.2 fold
7 | COc1ccc(C2=N[C@@H](c3ccc(Cl)cc3)[C@@H](c3ccc(Cl)cc3)N2C(=O)N2CCNC(=O)C2)c(OC(C)C)c1 [nutlin-3a, reference compound] |  |  |  | GI50 (HCT116 p53+/+ cells; control of the SRB assay, 48 h, read-out: GI50 in HCT116 p53+/+): 3.2 ± 1 µM; GI50 (HCT116 p53−/− cells; control of the SRB assay, 48 h, read-out: GI50 in HCT116 p53−/−): 24 ± 0.7 µM
8 | O=C1c2ccccc2[C@@]2(c3ccccc3)OC[C@H](Cc3c(Br)n(C(=O)c4ccccc4)c4ccccc34)N12 [Compound 13l, (3S, 9bR)-3-((1-benzoyl-2-bromo-1H-indol-3-yl)methyl)-9b-phenyl-2,3-dihydrooxazolo[2,3-a]isoindol-5(9bH)-one] |  | 23.2 ± 1.15 | > 50 | 
9 | C[C@]12OC[C@H](C[C@@H]3C(=O)Nc4ccccc43)N1C(=O)c1ccccc12 [SLMP53-1_M3a, (3S,9bR)-9b-methyl-3-(((S)-2-oxoindolin-3-yl)methyl)-2,3-dihydrooxazolo[2,3-a]isoindol-5(9bH)-one] |  |  |  | GI50 (HCT116 p53+/+ cells; [4]): > 50 µM; GI50 (HCT116 p53−/− cells; [5]): > 50 µM
10 | CC(=O)n1c(Br)c(C[C@H]2CO[C@]3(c4ccccc4)c4ccccc4C(=O)N23)c2ccccc21 [Compound 13m, (3S, 9bR)-3-((1-acetyl-2-bromo-1H-indol-3-yl)methyl)-9b-phenyl-2,3-dihydrooxazolo[2,3-a]isoindol-5(9bH)-one] | 1.7 | 13.05 ± 0.05 | 22.5 ± 2.5 | 
11 | Cc1ccc(S(=O)(=O)n2c(Br)c(C[C@H]3CO[C@]4(c5ccccc5)c5ccccc5C(=O)N34)c3ccccc32)cc1 [Compound 13o, (3S, 9bR)-3-((2-bromo-1-tosyl-1H-indol-3-yl)methyl)-9b-phenyl-2,3-dihydrooxazolo[2,3-a]isoindol-5(9bH)-one] | 0.6 | 34 ± 4 | 20.4 ± 1.15 | less active derivative compared with SLMP53-2 (7) (HCT116 p53+/+ cells; HCT116 p53+/+): 4.0 fold
12 | C=C1C(=O)C2CCN1CC2 [MQ, Methylene quinuclidinone, reference compound] |  |  |  | ΔTm of the wt p53DBD ([1]; DTT 1 mM): 2.28 °C; Tm of the wt p53DBD ([1]; DTT (1 mM)): 42.22 ± 0.30 °C; ΔTm of the wt p53DBD ([1]; TCEP 1 mM): 2.11 °C; Tm of the wt p53DBD ([1]; TCEP (1 mM)): 43.27 ± 1.15 °C
13 | O=C1c2ccccc2[C@@]2(c3ccccc3)OC[C@H](Cc3c(Br)[nH]c4ccccc34)N12 [Compound 13a, (3S, 9bR)-3-((2-bromo-1H-indol-3-yl)methyl)-9b-phenyl-2,3-dihydrooxazolo[2,3-a]isoindol-5(9bH)-one] | 0.7 | 14.6 ± 0.4 | 10.5 ± 2.6 | 
14 | C[C@]12OC[C@H](C[C@H]3C(=O)Nc4ccccc43)N1C(=O)c1ccccc12 [SLMP53-1_M3b, (3S,9bR)-9b-methyl-3-(((R)-2-oxoindolin-3-yl)methyl)-2,3-dihydrooxazolo[2,3-a]isoindol-5(9bH)-one] |  |  |  | GI50 (HCT116 p53+/+ cells; [4]): > 50 µM; GI50 (HCT116 p53−/− cells; [5]): > 50 µM
15 | O=C1c2ccccc2[C@@]2(c3ccc(Cl)cc3)OC[C@H](Cc3c(Br)[nH]c4ccccc34)N12 [Compound 13h, (3S, 9bR)-3-((2-bromo-1H-indol-3-yl)methyl)-9b-(4-chlorophenyl)-2,3-dihydrooxazolo[2,3-a]isoindol-5(9bH)-one] | 1.0 | 5.8 ± 0.3 | 5.8 ± 0.4 | increase in the antiproliferative activity on bromine insertion at the C-2 indole (HCT116 p53+/+ cells): 1.5 fold

Reference: article PMC9967700, “Metabolism-Guided Optimization of Tryptophanol-Derived Isoindolinone p53 Activators” (Pharmaceuticals, 2023)
